Experimental data taken from patent US20220002806A1, “BIOMARKER” (ERBER AKTIENGESELLSCHAFT, priority 2018, published 2022).

Experiments:
[1] = Zinedine et al. 2007; cited from earlier work
weaned female piglets = experiment: Feeding trial in weaned female piglets: vulva surface, reproductive tract weight, body weight; format: in vivo, pig; conditions: for reproductive tract weight relative to body weight, average (±SD): [reproductive tract (in grams)/body weight (in kg)]*100; for increase of vulva surface compared to the control group: d 26
Text: Weaned female piglets (sow: Landrace×Large White, boar: Pietrain; 30+/−2 days old) were obtained from a local producer and individually tagged. Piglets were housed in slatted floor pens under controlled environmental conditions. After an acclimatization period of seven days, twenty-four female piglets were selected based on both body weight and vulva size, and allocated to one of four groups (6 animals/group). Piglets received either blank feed (negative control; Ctrl) or feed contaminated with ZEN in three increasing concentrations (ZEN low: 0.17 mg/kg diet; ZEN medium: 1.5 mg/kg diet; ZEN high: 4.6 mg/kg diet). During the 28-day experimental period, each treatment group was given free access to water and the assigned diet. The pigs were observed daily and weighed weekly.
Diets were manufactured at BIOMIN AN (Herzogenburg, Austria), and formulated according to the energy and amino acid requirements for piglets. Four different batches were prepared, one control batch and three batches artificially contaminated with ZEN (Fermentek LTD, Israel; purity >99.2%). Homogenous distribution of ZEN within the diets was achieved by preparation of maltodextrin premixes, which contained appropriate amounts of ZEN and were added to the basal feed at an inclusion rate of 0.9% (w/w). Final ZEN concentrations were verified by HPLC-MS (Romer Labs GmbH) and confirmed.
Blood was collected weekly (d 0, 6, 14, 21 and 28) from individual animals by punctuation of the vena cava cranialis (Primavette® EDTA, Kabe Labortechnik GmbH, Nümbrecht-Elsenroth, Deutschland). After centrifugation (1500×g, 20 min), serum samples were stored at −80° C. for later analysis. Vulva length and width were measured at regular intervals with a caliper to determine the dietary ZEN effects. The vulva area was calculated as vulva length×vulva width, as previously reported (Jiang et al. 2011. Journal of animal science, 89, 3008-3015). Eight measurements were done per piglet over the experimental period.
After 28 days of dietary exposure to the experimental diets, pigs were anesthetized by intramuscular injection of ketamine (0.1 mL/kg body weight (b.w.) Narketan®, Vétoquinol GmbH, Ravensburg, Germany) and azaperone (0.03 mL/kg b.w.; Stresnil®, Janssen-Cilag, Neuss, Germany). Subsequently, animals were euthanized by intracardial injection of T61® (Intervet, UnterschleiBheim, Germany; 0.1 ml/kg b.w.). The whole reproductive tract was collected, weighed and examined for any clinical signs. Small pieces of the corpus uteri and the mid-jejunum were dissected, placed into 1 mL of RNAlater, and stored overnight at 4° C. The next day, all the tissue samples were transferred to −80° C. for long-term storage, and until processed for transcriptomics analysis.

C[C@H]1CCCC(=O)CCC/C=C/c2cc(O)cc(O)c2C(=O)O1 [ZEN, (2E,11S)-15,17-dihydroxy-11-methyl-12-oxabicyclo[12.4.0]octadeca-1(18),2,14,16-tetraene-7,13-dione]
acute toxicity [1]: low | days of exposure after which vulva surface was significantly increased (weaned female piglets; ZEN high (4.6 mg/kg diet)): six | reproductive tract weight relative to body weight, average (±SD) (weaned female piglets; ZEN high (4.6 mg/kg diet), 28 days): 353.4±110.6 | increase of vulva surface compared to the control group (weaned female piglets; ZEN high (4.6 mg/kg diet)): +230% | reproductive tract weight relative to body weight, average (±SD) (weaned female piglets; ZEN low (0.17 mg/kg diet), 28 days): 55.8±17.2 | days of exposure after which vulva surface was significantly increased (weaned female piglets; ZEN medium (1.5 mg/kg diet)): thirteen | reproductive tract weight relative to body weight, average (±SD) (weaned female piglets; ZEN medium (1.5 mg/kg diet), 28 days): 121.4±43.4 | increase of vulva surface compared to the control group (weaned female piglets; ZEN medium (1.5 mg/kg diet)): +90% | effect on the body weight of the piglets (weaned female piglets; independent of the concentration (0.17-4.6 mg/kg diet), 28 days): no effect
